Measurements from patent US20170107212A1, “NOVEL COMPOUNDS” (Bayer Pharma Aktiengesellschaft, priority 2014, published 2017).
Where a name gives a salt, the structure may show the parent alone.

Key:
[1] = tested on: constitutive active colorectal cancer cell (CRC) Wnt pathway, HCT116 TOPFlash; test: Cellular reporter assay, HCT116 Super TopFlash (constitutive active Wnt pathway), luciferase expression; assay type: cell-based; conditions: Homo sapiens, HCT116 Super TopFlash reporter cells, 36 hours incubation, dilution series 50 μM to 15 nM
Protocol: In order to discover and characterize small molecules which inhibit the constitutive active colorectal cancer cell (CRC) Wnt pathway, a cellular reporter assay was employed. The corresponding assay cell was generated by transfection of the colorectal cancer cell line HCT116 (ATCC, #CCL-247) with the Super TopFlash vector (Morin, Science 275, 1997, 1787-1790; Molenaar et al., Cell 86 (3), 1996, 391-399). The HCT116 cell line is cultivated at 37° C. and 5% CO2 in DMEM/F-12 (Life Technologies, #11320-074), supplemented with 2 mM glutamine, 20 mM HEPES, 1.4 mM pyruvate, 0.15% Na-bicarbonate and 10% foetal bovine serum (GIBCO, #10270), this cancer cell line is pathophysiological relevant since it carries a deletion of position S45 in the β-catenin gene, leading to constitutive active Wnt signaling. Stable transfectants were generated by cotransfection with pcDNA3 and selection of stable transfected cells with 1 mg/ml G418.
(§1) In preparation of the assay, the two cell lines were plated 24 hours before at 10000 cells per well of a 384 micro titre plate (MTP) in 30 μL growth medium. Selective inhibitory activity for small molecules on the mutated Wnt pathway was determined after parallel incubation of both (TOP and FOP) HCT116 reporter cell lines with a compound dilution series from 50 μM to 15 nM in steps of 3.16-fold dilutions in CAFTY buffer (130 mM NaCl, 5 mM KCl, 20 mM HEPES, 1 mM MgCl2, 5 mM NaHCO3, pH 7.4) containing 2 mM Ca^2+ and 0.01% BSA. The compounds were thereby serially prediluted in 100% DMSO and thereafter in addition 50 fold into the CAFTY compound dilution buffer (described above). From this dilution 10 μL were added to the cells in 30 μL growth medium and incubated for 36 hours at 37° C. and 5% CO2. Thereafter luciferase assay buffer (1:1 mixture of luciferase substrate buffer (20 mM Tricine, 2.67 mM MgSO4, 0.1 mM EDTA, 4 mM DTT, 270 μM Coenzyme A, 470 μM Luciferin, 530 μM ATP, ph adjusted to pH 7.8 with a sufficient volume of 5M NaOH) and Triton buffer (30 mL Triton X-100, 115 mL glycerol, 308 mg Dithiothreitol, 4.45 g Na2HPO4.2H2O, 3.03 g TRIS HCl, ad 1 l H20, pH 7.8) was added as equal volume to the compound solution on the cells to determine luciferase expression as a measure of Wnt signaling activity in a luminometer.

HCT116 FOPFlash = test: Control reporter assay, HCT116 FOP control vector (non-functional TCF elements), luciferase expression; assay type: cell-based; conditions: Homo sapiens, HCT116 FOP control reporter cells, 36 hours incubation, dilution series 50 μM to 15 nM
Protocol: In a parallel approach, HCT116 cells were cotransfected with the FOP control vector and pcDNA3. The FOP vector is identical to the TOP construct, but it contains instead of functional TCF elements a randomized, non-functional sequence. For this transfection a stable transfected cell line was generated as well.
as §1

Compound	IC50 ([1]; HCT-116, 36 h)	IC50 (HCT116 FOPFlash; HCT-116, 36 h)	IC50 ([1]; HCT-116)	IC50 (HCT116 FOPFlash; HCT-116)
Cc1csc(-c2nnc(NC(=O)c3ccc(OC(F)(F)F)c(NC(=O)CN4CCOCC4)c3)s2)n1 [Example 92, N-[5-(4-methyl-1,3-thiazol-2-yl)-1,3,4-thiadiazol-2-yl]-3-[(morpholin-4-ylacetyl)amino]-4-(trifluoromethoxy)benzamide]	21.2 µM	≥ 50 µM	–	–
CC(C(=O)Nc1cc(C(=O)Nc2ccc(-c3cnc(N)nc3)nc2)ccc1OC(F)(F)F)N1CCOCC1 (stereo not shown) [Example 6]	0.019 µM	≥ 50 µM	–	–
Cc1nc(-c2nnc(NC(=O)c3ccc(OC(F)(F)F)c(NC(=O)CN4CCOCC4)c3)s2)cs1 [Example 95, N-[5-(2-methyl-1,3-thiazol-4-yl)-1,3,4-thiadiazol-2-yl]-3-[(morpholin-4-ylacetyl)amino]-4-(trifluoromethoxy)benzamide]	25.3 µM	≥ 50 µM	–	–
COCCCOc1ccc(C(=O)Nc2nnc(-c3cnccc3C)s2)cc1NC(=O)CN1CCN(C)CC1 [Example 114, 4-(3-methoxypropoxy)-3-{[(4-methylpiperazin-1-yl)acetyl)amino}-N-[5-(4-methylpyridin-3-yl)-1,3,4-thiadiazol-2-yl]benzamide]	26.1 µM	≥ 50 µM	–	–
CN1CCN(CC(=O)Nc2cc(C(=O)Nc3nnc(-c4cscn4)s3)ccc2OC(F)(F)F)CC1 [Example 64, 3-{[(4-methylpiperazin-1-yl)acetyl]amino}-N-[5-(1,3-thiazol-4-yl)-1,3,4-thiadiazol-2-yl]-4-(trifluoromethoxy)benzamide]	1.11 µM	46 µM	–	–
Nc1ncc(-c2nnc(NC(=O)c3ccc(OC(F)(F)F)c(NC(=O)CN4CCOCC4)c3)s2)s1 [Example 104, N-[5-(2-amino-1,3-thiazol-5-yl)-1,3,4-thiadiazol-2-yl]-3-[(morpholin-4-ylacetyl)amino]-4-(trifluoromethoxy)benzamide]	17.9 µM	≥ 50 µM	–	–
Cc1cccnc1-c1nnc(NC(=O)c2ccc(OC(F)(F)F)c(NC(=O)CN3CCN(C)CC3)c2)s1 [Example 42, 1-methyl-4-(2-{[5-{[5-(3-methylpyridin-2-yl)-1,3,4-thiadiazol-2-yl]carbamoyl}-2-(trifluoromethoxy)phenyl]amino}-2-oxoethyl)piperazin-1-ium hexafluorophosphate]	–	–	0.32 µM	38.5 µM
Cc1ncsc1-c1nnc(NC(=O)c2ccc(OC(F)(F)F)c(NC(=O)CN3CCOCC3)c2)s1 [Example 108, N-[5-(4-methyl-1,3-thiazol-5-yl)-1,3,4-thiadiazol-2-yl)-3-[(morpholin-4-ylacetyl)amino]-4-(trifluoromethoxy)benzamide]	≥ 50 µM	≥ 50 µM	–	–
Cc1nccnc1-c1nnc(NC(=O)c2ccc(OC(F)(F)F)c(NC(=O)CN3CCOCC3)c2)s1 [Example 91, N-[5-(3-methylpyrazin-2-yl)-1,3,4-thiadiazol-2-yl]-3-[(morpholin-4-ylacetyl)amino]-4-(trifluoromethoxy)benzamide]	35.6 µM	≥ 50 µM	–	–
CN1CCN(CC(=O)Nc2cc(C(=O)Nc3nnc(-c4cccnc4)s3)ccc2Cl)CC1 [Example 84, 4-chloro-3-{[(4-methylpiperazin-1-yl)acetyl]amino}-N-[5-(pyridin-3-yl)-1,3,4-thiadiazol-2-yl]benzamide hydrochloride]	≥ 50 µM	≥ 50 µM	–	–
CN1CCN(C2(C(=O)Nc3cc(C(=O)Nc4nnc(-c5ccccn5)s4)ccc3OC(F)(F)F)CC2)CC1 [Example 18, 3-({[1-(4-methylpiperazin-1-yl)cyclopropyl]carbonyl}amino)-N-[5-(pyridin-2-yl)-1,3,4-thiadiazol-2-yl]-4-(trifluoromethoxy)benzamide hydrochloride]	0.106 µM	10.3 µM	–	–
CN1CCN(CC(=O)Nc2cc(C(=O)Nc3nnc(-c4cnccn4)s3)ccc2OC2CC2)CC1 [Example 60, 4-(cyclopropyloxy)-3-{[(4-methylpiperazin-1-yl)acetyl]amino}-N-[5-(pyrazin-2-yl)-1,3,4-thiadiazol-2-yl]benzamide]	4.4 µM	≥ 50 µM	–	–
Cc1ccnc(-c2nnc(NC(=O)c3ccc(OC(F)(F)F)c(NC(=O)CN4CCOCC4)c3)s2)c1 [Example 93, N-[5-(4-methylpyridin-2-yl)-1,3,4-thiadiazol-2-yl]-3-[(morpholin-4-ylacetyl)amino]-4-(trifluoromethoxy)benzamide]	≥ 50 µM	≥ 50 µM	–	–
CN1CCN(CC(=O)Nc2cc(C(=O)Nc3nnc(-c4cccnc4)s3)ccc2OC(F)(F)F)CC1 [Example 20, 3-{[(4-methylpiperazin-1-yl)acetyl]amino}-N-[5-(pyridin-3-yl)-1,3,4-thiadiazol-2-yl]-4-(trifluoromethoxy)benzamide hydrochloride]	0.167 µM	40 µM	–	–
CN1CCN(CC(=O)Nc2cc(C(=O)Nc3ccc(-c4cccnc4F)cn3)ccc2OC(F)(F)F)CC1 [Example 13, N-(2′-fluoro-3,3′-bipyridin-6-yl)-3-{[(4-methylpiperazin-1-yl)acetyl]amino}-4-(trifluoromethoxy)benzamide]	0.0415 µM	≥ 50 µM	–	–
COc1ncc(-c2ccc(NC(=O)c3ccc(OC(F)(F)F)c(NC(=O)C(C)N4CCOCC4)c3)cn2)cn1 (stereo not shown) [Example 7, N-[6-(2-methoxypyrimidin-5-yl)pyridin-3-yl]-3-{[2-(morpholin-4-yl)propanoyl]amino}-4-(trifluoromethoxy)benzamide]	0.115 µM	≥ 50 µM	–	–
O=C(CN1CCOCC1)Nc1cc(C(=O)Nc2nnc(-c3ccncc3)s2)ccc1OC(F)(F)F [Example 81, 3-[(morpholin-4-ylacetyl)amino]-N-[5-(pyridin-4-yl)-1,3,4-thiadiazol-2-yl]-4-(trifluoromethoxy)benzamide]	≥ 50 µM	≥ 50 µM	–	–
Cc1scnc1-c1nnc(NC(=O)c2ccc(OC(F)(F)F)c(NC(=O)CN3CCOCC3)c2)s1 [Example 105, N-[5-(5-methyl-1,3-thiazol-4-yl)-1,3,4-thiadiazol-2-yl)-3-[(morpholin-4-ylacetyl)amino]-4-(trifluoromethoxy)benzamide]	≥ 50 µM	≥ 50 µM	–	–
O=C(CN1CCOCC1)Nc1cc(C(=O)Nc2nnc(-c3cnccc3C(F)(F)F)s2)ccc1OC(F)(F)F [Example 110, 3-[(morpholin-4-ylacetyl)amino)-4-(trifluoromethoxy)-N-{5-[4 (trifluoromethyl)pyridin-3-yl)-1,3,4-thiadiazol-2-yl}benzamide]	33 µM	≥ 50 µM	–	–
CN1CCN(CC(=O)Nc2cc(C(=O)Nc3nnc(-c4nccs4)s3)ccc2OC(F)(F)F)CC1 [Example 45, 1-methyl-4-(2-oxo-2-{[5-{[5-(1,3-thiazol-2-yl)-1,3,4-thiadiazol-2-yl]carbamoyl}-2-(trifluoromethoxy)phenyl]amino}ethyl)piperazin-1-ium hexafluorophosphate]	–	–	1.48 µM	45 µM
CN1CCN(CC(=O)Nc2cc(C(=O)Nc3cnc(-c4ccncc4)cn3)ccc2OC(F)(F)F)CC1 [Example 52, 3-{[(4-methylpiperazin-1-yl)acetyl]amino}-N-[5-(pyridin-4-yl)pyrazin-2-yl]-4-(trifluoromethoxy)benzamide]	0.064 µM	≥ 50 µM	–	–
CN1CCN(C2(C(=O)Nc3cc(C(=O)Nc4nnc(-c5cnc(N)nc5)s4)ccc3OC(F)(F)F)CC2)CC1 [Example 32, N-[5-(2-aminopyrimidin-5-yl)-1,3,4-thiadiazol-2-yl]-3-({[1-(4-methylpiperazin-1-yl)cyclopropyl]carbonyl}amino)-4-(trifluoromethoxy)benzamide]	0.128 µM	≥ 50 µM	–	–
CN1CCN(C2(C(=O)Nc3cc(C(=O)Nc4nnc(-c5cccnc5)s4)ccc3Cl)CC2)CC1 [Example 26, 4-chloro-3-({[1-(4-methylpiperazin-1-yl)cyclopropyl]carbonyl}amino)-N-[5-(pyridin-3-yl)-1,3,4-thiadiazol-2-yl]benzamide]	0.5 µM	≥ 50 µM	–	–
